Results on ten compounds are retold here after paper PMC12467382, “Synthesis and Bioevaluation of Chalcones as Broad-Spectrum Antiviral Compounds Against Single-Stranded RNA Viruses” (Biomolecules, 2025).

Bounds are passed on as bounds.

One data set deals with CHO-K1 cells. Put plainly: cells. The note with it: for CHOK1 48 h EC10: Chinese hamster; for EC50: Cricetulus griseus, CHO-K1, 48 h, read-out: CHOK1 48 h EC50. Type of data set: cell-based, Chinese hamster. The protocol:
(§1) A cell growth assay using the MTS reagent was conducted to assess the general toxicity of each chalcone compound. Briefly, cell growth was assayed in sterile 96-well microtiter plates (Costar 3599, Corning Inc., Corning, NY, USA) in the presence of each chalcone. Experiments were conducted in triplicate. In a typical experiment, there are two plates. The first is the control plate, which allows one to assess the starting cell population on the day of drug addition (Day 0). The second plate is the test plate where cells are plated and tested with different drug concentrations on Day 0. For example, either CHO cells or Hs27 cells were plated in a 200 µL volume at 1000 cells/well on both the control and test plates and incubated overnight to allow the cells to adhere. On Day 0, 1 μL of PBS was added to the control plate wells so that their total volume was 201 μL. MTS reagent (Promega Cell Titer 96 Aqueous non-radioactive cell proliferation reagent, Promega, Madison, WI, USA) was added (20 μL) to each well on the control plate, and that plate was incubated for 4 h in a 5% CO2 atmosphere at 37 °C and then read on the plate reader.
(§2) On Day 0, 1 μL of a 200× stock solution of each chalcone was added to the respected well on the test plate, and each condition was tested in triplicate. Drug solutions were prepared in advance in 100% DMSO and dosed so that the final DMSO concentration was 0.5%. For example, 1 μL of chalcone solution was added to the cells plated in each well in 200 μL of media. Of note, the respective chalcone addition occurred after an initial overnight incubation of each cell line in each well to reach Day 0 (the drugging day). After the chalcone was added, the cells were incubated in 5% CO2 for 48 h at 37 °C. After 48 h, the MTS reagent (Promega, Madison, WI, USA) was added (20 μL), and the test plates were incubated for an additional 4 h, and then, absorbance at 490 nm was measured on a BioTek Synergy MX plate reader. […] IC50 values were determined from the corresponding plot of relative absorbance at 490 nm vs. the drug concentration.
(§3) For highly colored materials like the chalcones, it is important to consider the contribution of the compound’s own absorbance to the MTS assay. To correct for the absorbance contribution of the chalcone itself, we measured each chalcone’s absorbance (Chalcone Abs) at 490 nm at the respective concentration (e.g., 10 µM) and subtracted the absorbance of the media background (blank Abs). This net value was then subtracted out of the Day 2 absorbance value to provide the % relative growth via the following equation:(1) % Relative Growth = (Day 2 Abs−Day 2 blank Abs)−Chalcone Abs−blank Abs−(Day 0 Abs−Day 0 blank Abs)/(Day 2 Control Abs −Day 2 blank Abs)−(Day 0 Abs−Day 0 blank Abs) ×100%
With the chalcones in hand, we then evaluated their growth-inhibition properties in Chinese hamster ovary (CHO-K1) cells and human Hs27 fibroblast cells. […] The results are shown in Table 2 along with a SAR summary of our findings in the host Hs27 cells.

The subject of a further data set is Hs27 cells. The data set can be described thus: 48 h MTS growth inhibition assay in Hs27 cells. Type of data set: cell-based, human. The note with it: for EC50: Homo sapiens, HS27, 48 h, read-out: Hs27 48 h EC50; for Hs27 48 h EC10: highest concentration giving 90% relative new cell growth after 48 h, 0.5% DMSO. The protocol:
as §1, with “Briefly, cell growth was assayed in sterile 96-well microtiter plates (Costar 3599, Corning Inc., Corning, NY, USA) in the presence of each chalcone.” left out
as §2, §3
With the chalcones in hand, we then evaluated their growth-inhibition properties in Chinese hamster ovary (CHO-K1) cells and human Hs27 fibroblast cells.
(Tetrazolium dyes change colour on reduction, which living cells bring about.)

The term EC50 denotes the midpoint of the concentration-response curve. Consider `COc1ccccc1/C=C/C(=O)c1ccccc1O` [Chalcone 8a], for which, in the data set on CHO-K1 cells, the “CHOK1 48 h EC10” value came out at 9.3 ± 0.6 µM and the EC50 was found to be 25.5 ± 2.7 µM. In addition, in the data set with Hs27 cells, the concentration for a half-maximal effect (EC50) stood at 20.3 ± 2.1 µM and the “Hs27 48 h EC10” value is given as 0.6 ± 0.04 µM.

Consider `COc1ccc(Br)cc1/C=C/C(=O)c1c(O)cccc1OC` [Chalcone 8f], for which, in the data set with CHO-K1 cells, the “CHOK1 48 h EC10” value turned out to be 2.5 ± 0.1 µM and the EC50 came out at 6.1 ± 0.8 µM. Besides, in the data set with Hs27 cells, the EC50 stood at 2.3 ± 0.2 µM and the “Hs27 48 h EC10” value worked out at 1.4 ± 0.1 µM.

As for `COc1ccc(Br)cc1/C=C/C(=O)c1c(O)cccc1OCc1ccccc1` [Chalcone 8l], in the data set with CHO-K1 cells, the “CHOK1 48 h EC10” value is recorded as 5.2 ± 0.3 µM and the EC50 was determined as 8.1 ± 1 µM. Moreover, in the data set with Hs27 cells, the concentration giving a half-maximal response (EC50) amounted to 7.8 ± 0.6 µM and the “Hs27 48 h EC10” value is listed as 6.1 ± 0.5 µM.

With `CCOc1ccc(Br)cc1/C=C/C(=O)c1c(O)cccc1OCc1ccccc1` [Chalcone 8o], in the data set on CHO-K1 cells, the “CHOK1 48 h EC10” value worked out at 7.0 ± 0.4 µM and the concentration giving a half-maximal response (EC50) is 9.9 ± 0.7 µM. Moreover, in the data set on Hs27 cells, the half-maximal effective concentration (EC50) is 13.3 ± 1.1 µM and the “Hs27 48 h EC10” value was 8.3 ± 0.5 µM.

In the case of `CCOc1ccc(Cl)cc1/C=C/C(=O)c1c(O)cccc1OCc1ccccc1` [Chalcone 8p], in the data set on CHO-K1 cells, the “CHOK1 48 h EC10” value came out at 8.2 ± 0.3 µM and the 50% effective concentration (EC50) was 25.8 ± 1.1 µM. Further, in the data set on Hs27 cells, the 50% effective concentration (EC50) was 19.3 ± 1.9 µM and the “Hs27 48 h EC10” value came out at 8.7 ± 0.7 µM.

For the compound `COc1ccc(Br)cc1/C=C/C(=O)c1c(O)cccc1OCCC(C)C` [Chalcone 8s, (2E)-3-(5-Bromo-2-Methoxy-Phenyl)-1-[2-Hydroxy-6-(3-Methyl-Butoxy)-Phenyl]-Propenone], in the data set with CHO-K1 cells, the “CHOK1 48 h EC10” value was determined as 5.4 ± 0.3 µM and the 50% effective concentration (EC50) turned out to be 8.6 ± 0.3 µM. In addition, in the data set with Hs27 cells, the concentration for a half-maximal effect (EC50) stood at 13.9 ± 0.5 µM and the “Hs27 48 h EC10” value stood at 6.9 ± 0.6 µM.

Regarding `CCOc1ccc(Br)cc1/C=C/C(=O)c1c(O)cccc1OCc1ccc(-c2ccccc2)cc1` [Chalcone 8v, (2E)-1-[2-(Biphenyl-4-Ylmethoxy)-6-Hydroxy-Phenyl]3-(5-Bromo-2-Ethoxy-Phenyl)-Propenone], in the data set with CHO-K1 cells, the “CHOK1 48 h EC10” value came to 3.7 ± 0.3 µM and the EC50 was above 50 µM. Also, in the data set with Hs27 cells, the EC50 was found to be 18.4 ± 0.9 µM and the “Hs27 48 h EC10” value worked out at 3.4 ± 0.2 µM.

As for `COc1ccc(Br)cc1/C=C/C(=O)c1c(O)cccc1OCc1ccc(-c2ccccc2)cc1` [Chalcone 8w, (2E)-1-[2-(Biphenyl-4-Ylmethoxy)-6-Hydroxy-Phenyl]3-(5-Bromo-2-Methoxy-Phenyl)-Propenone], in the data set on CHO-K1 cells, the “CHOK1 48 h EC10” value was determined as 6.8 ± 0.3 µM and the EC50 was 10.1 ± 1 µM. Moreover, in the data set with Hs27 cells, the EC50 is 8.2 ± 0.5 µM and the “Hs27 48 h EC10” value came to 6.5 ± 0.5 µM.

For the compound `COc1ccc(O)cc1/C=C/C(=O)c1c(O)cccc1OCc1ccccc1` [Chalcone 8x, (2E)-1-(2-Benzloxy-6-Hydroxy-Phenyl)-5-(5-Hydroxy-2-Methoxy-Phenyl)-Propenone], in the data set with CHO-K1 cells, the “CHOK1 48 h EC10” value came out at 3.8 ± 0.4 µM and the EC50 was determined as 6.3 ± 0.3 µM. Also, in the data set with Hs27 cells, the EC50 came to 3.4 ± 0.3 µM and the “Hs27 48 h EC10” value came to 1.1 ± 0.07 µM.

Consider `COc1cc(/C=C/C(=O)c2c(O)cccc2OCc2ccccc2)cc(OC)c1OC` [Chalcone 8z, (2E)-1-(2-Benzloxy-6-Hydroxy-Phenyl)-3-(3,4,5-Trimethoxy-Phenyl)-Propenone], for which, in the data set on CHO-K1 cells, the “CHOK1 48 h EC10” value is reported as 3.8 ± 0.4 µM and the EC50 came out at 5.8 ± 0.4 µM. Besides, in the data set with Hs27 cells, the EC50 was found to be 5 ± 0.2 µM and the “Hs27 48 h EC10” value is listed as 4.0 ± 0.2 µM.
